Assay results: the NIST ThermoML archive (doi:10.1016/j.jct.2003.08.017)

Key:
[1] = Crystal
[2] = molar heat capacity at constant pressure; conditions: 101.33 kPa, Small (less than 1 g) adiabatic calorimetry
[3] = Molar enthalpy of transition or fusion; conditions: Crystal

OCC1c2ccccc2-c2ccccc21 [9-fluorenemethanol]
Conditions | Molar enthalpy of transition or fusion [kcal/mol] | Triple point temperature [K]
[1] | – | 376.57
[3] | 6.279 | –

[2]
Conditions | molar heat capacity at constant pressure [J/K/mol]
78.5 K, Crystal | 74.59
79.9 K, Crystal | 75.63
82.26 K, Crystal | 77.22
84.64 K, Crystal | 78.94
85.94 K, Crystal | 79.76
87.24 K, Crystal | 80.69
88.54 K, Crystal | 81.69
89.84 K, Crystal | 82.71
91.05 K, Crystal | 83.42
92.27 K, Crystal | 84.33
93.81 K, Crystal | 85.44
95.68 K, Crystal | 86.83
97.47 K, Crystal | 88.34
99.25 K, Crystal | 89.58
101.04 K, Crystal | 90.8
102.74 K, Crystal | 92
104.45 K, Crystal | 93.28
106.15 K, Crystal | 94.37
107.78 K, Crystal | 95.55
110.05 K, Crystal | 97.38
112.81 K, Crystal | 99.34
115.57 K, Crystal | 101.09
118.25 K, Crystal | 103.07
120.84 K, Crystal | 105.05
123.44 K, Crystal | 107.15
126.04 K, Crystal | 109.39
128.55 K, Crystal | 111.1
131.07 K, Crystal | 112.95
133.5 K, Crystal | 114.39
135.94 K, Crystal | 116.5
138.38 K, Crystal | 118.22
140.73 K, Crystal | 120.24
143.08 K, Crystal | 121.92
145.44 K, Crystal | 123.49
147.79 K, Crystal | 125.56
150.06 K, Crystal | 127.26
152.34 K, Crystal | 129.25
154.61 K, Crystal | 130.86
156.8 K, Crystal | 132.44
158.99 K, Crystal | 134.22
161.18 K, Crystal | 136.08
163.38 K, Crystal | 137.61
165.57 K, Crystal | 139.23
167.68 K, Crystal | 141.01
169.87 K, Crystal | 142.68
171.98 K, Crystal | 144.26
174.09 K, Crystal | 145.97
176.12 K, Crystal | 147.81
178.23 K, Crystal | 149.54
180.26 K, Crystal | 151.27
182.29 K, Crystal | 153.26
184.32 K, Crystal | 155.07
186.35 K, Crystal | 156.65
188.38 K, Crystal | 158.43
190.32 K, Crystal | 160.03
192.27 K, Crystal | 161.75
194.22 K, Crystal | 163.44
196.17 K, Crystal | 165.02
198.12 K, Crystal | 167.02
200.06 K, Crystal | 168.41
201.93 K, Crystal | 170.12
203.88 K, Crystal | 172.09
205.75 K, Crystal | 173.99
207.69 K, Crystal | 175.77
209.56 K, Crystal | 177.8
211.43 K, Crystal | 179.56
213.21 K, Crystal | 181.31
215.08 K, Crystal | 183.23
216.95 K, Crystal | 185.04
218.73 K, Crystal | 186.49
220.52 K, Crystal | 188.39
222.38 K, Crystal | 190.43
224.17 K, Crystal | 192.38
225.96 K, Crystal | 194.23
227.66 K, Crystal | 195.8
229.45 K, Crystal | 197.65
231.15 K, Crystal | 199.09
232.86 K, Crystal | 201.07
234.64 K, Crystal | 202.79
236.35 K, Crystal | 203.84
238.05 K, Crystal | 205.56
239.75 K, Crystal | 207.12
241.46 K, Crystal | 208.72
243.08 K, Crystal | 210.03
244.71 K, Crystal | 211.22
246.41 K, Crystal | 212.28
248.12 K, Crystal | 213.72
249.74 K, Crystal | 215.05
251.36 K, Crystal | 216.5
253.07 K, Crystal | 218.21
254.69 K, Crystal | 219.66
256.31 K, Crystal | 220.83
257.94 K, Crystal | 221.75
259.56 K, Crystal | 223.22
261.18 K, Crystal | 224.27
262.73 K, Crystal | 225.73
264.35 K, Crystal | 226.9
265.97 K, Crystal | 228.35
267.6 K, Crystal | 229.68
269.14 K, Crystal | 231.11
270.68 K, Crystal | 232.43
272.14 K, Crystal | 233.76
273.68 K, Crystal | 235.07
276.77 K, Crystal | 237.44
280.83 K, Crystal | 240.46
284.15 K, Crystal | 243.34
287.89 K, Crystal | 246.4
291.22 K, Crystal | 248.63
294.46 K, Crystal | 252.05
297.55 K, Crystal | 255.07
300.71 K, Crystal | 258.24
303.8 K, Crystal | 261.53
306.96 K, Crystal | 265.22
310.05 K, Crystal | 268.37
313.05 K, Crystal | 272.08
316.13 K, Crystal | 275.5
319.22 K, Crystal | 279.32
322.22 K, Crystal | 283
325.23 K, Crystal | 287.49
328.23 K, Crystal | 292.62
331.15 K, Crystal | 297.89
334.07 K, Crystal | 303.26
337 K, Crystal | 308.39
339.84 K, Crystal | 314.22
342.68 K, Crystal | 320.06
345.44 K, Crystal | 326.47
348.03 K, Crystal | 332.27
350.71 K, Crystal | 338.6
353.31 K, Crystal | 344.72
355.99 K, Crystal | 351.11
358.59 K, Crystal | 357.3
360.94 K, Crystal | 363.05
378.41 K, Liquid | 50.2
379.63 K, Liquid | 50.76
381.41 K, Liquid | 51.75
383.59 K, Liquid | 52.7
385.71 K, Liquid | 53.72
387.58 K, Liquid | 54.67
389.69 K, Liquid | 55.38
